# Reference: patent US20250326744A1, “PIPERAZINE DERIVATIVE OR SALT THEREOF, AND PHARMACEUTICAL COMPOSITION” (priority 2022, published 2025)
# Counter-ions that a name gives are not always drawn.
# Assays:
# mexB (EC) strain = assay: Efflux ability inhibition effect on drug efflux pump MexB (Test Examples 1 and 3): proliferation (OD595) of mexB (EC) strain with EM or LVFX at 1/4 MIC, EC75; format: cell-based, Escherichia coli; settings: for EC75, mexB (EC) strain, EM: combined with EM at 1/4 MIC; for EC75, mexB (EC) strain, LVFX: combined with LVFX at 1/4 MIC
# How it was run: (§1)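 E. coli ΔacrB/ΔtolC strains carrying P. aeruginosa MexAB-OprM or MexXY-OprM were grown in LB for 16 to 20 hours with EM or LVFX at ¼ MIC plus compound (0 to 800 μM). Growth was read as OD595. EC75 is the lowest compound concentration giving ≥75% growth inhibition versus antibiotic alone.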
# mexY (EC) strain = assay: Efflux ability inhibition effect on drug efflux pump MexY (Test Examples 1 and 3): proliferation (OD595) of mexY (EC) strain with EM or LVFX at 1/4 MIC, EC75; format: cell-based, Escherichia coli; settings: for EC75, mexY (EC) strain, EM: combined with EM at 1/4 MIC; for EC75, mexY (EC) strain, LVFX: combined with LVFX at 1/4 MIC
# How it was run: as §1
# mexB (PA) strain = assay: Combinational effect with antibacterial agent against Pseudomonas aeruginosa (Test Examples 2 and 4): mexB (PA) strain with LVFX, TC or AZT at 1/4 MIC, EC99; format: cell-based; settings: mexB (PA) strain, Test Example 4; for EC99, combinational effect with AZT, mexB (PA): combined with AZT at 1/4 MIC; for EC99, combinational effect with LVFX, mexB (PA): combined with LVFX at 1/4 MIC; for EC99, combinational effect with TC, mexB (PA): combined with TC at 1/4 MIC
# How it was run: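 EC99 denotes the minimum test-compound concentration (range 0–800 μM) that suppresses ≥99% of growth, measured by OD595, when combined with ¼ MIC levofloxacin (LVFX), tetracycline or aztreonam. The efflux-pump mutant mexB (PA), expressing mainly MexAB-OprM, was inoculated at 10^4–5 CFU/well in CAMHB for 16–20 h.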
# S-3769 strain = assay: Combinational effect with antibacterial agent against Pseudomonas aeruginosa (Test Examples 2 and 4): S-3769 strain with AMK or GM at 1/4 MIC, EC99; format: cell-based; settings: S-3769 strain, Test Example 4; for EC99, combinational effect with AMK, S-3769 strain: combined with AMK at 1/4 MIC; for EC99, combinational effect with GM, S-3769 strain: combined with GM at 1/4 MIC
# How it was run: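 EC99, the lowest test-compound concentration inhibiting growth by ≥99% (OD595), was measured with aminoglycoside AMK or GM held at ¼ MIC. Strain S-3769, a MexY-overexpressing clinical isolate, was cultured in CAMHB at 10^4 to 5 CFU/well for 16–20 h; compound range 0–800 μM.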
# [1] = Table 51, Test Example 1, 16 to 20 hours culture, OD595
# [2] = Table 53, Test Example 3, same manner as Test Example 1
compound,measurement,setting,value
"COc1ccccc1CN1CCN(C(=O)CN2CCC(CN)(CCc3ccccc3)CC2)CC1 [Example 413, hydrochloride of 2-(4-(aminomethyl)-4-phenethylpiperidin-1-yl)-1-(4-(2-methoxybenzyl)piperazin-1-yl)ethan-1-one]","EC75, mexB (EC) strain, EM",mexB (EC) strain; [1],A (12.5 μM<EC75≤25 μM)
same,"EC75, mexB (EC) strain, LVFX",mexB (EC) strain; [1],A (12.5 μM<EC75≤25 μM)
same,"EC75, mexY (EC) strain, EM",mexY (EC) strain; [1],A (12.5 μM<EC75≤25 μM)
"COc1ccccc1CN1CCN(C(=O)CN2CCC(N)(CCc3ccccc3)CC2)CC1 [Example 414, hydrochloride of 2-(4-amino-4-phenethylpiperidin-1-yl)-1-(4-(2-methoxybenzyl)piperazin-1-yl)ethan-1-one]","EC75, mexB (EC) strain, LVFX",mexB (EC) strain; [1],A (12.5 μM<EC75≤25 μM)
same,"EC75, mexY (EC) strain, EM",mexY (EC) strain; [1],B (25 μM<EC75≤100 μM)
same,"EC75, mexY (EC) strain, LVFX",mexY (EC) strain; [1],B (25 μM<EC75≤100 μM)
"COc1ccccc1CN1CCN(C(=O)CN2CCC(NC(=O)c3ccc(O)c(O)c3Cl)CC2)CC1 [Example 418, hydrochloride of 2-chloro-3,4-dihydroxy-N-(1-(2-(4-(2-methoxybenzyl)piperazin-1-yl)-2-oxoethyl)piperidin-4-yl)benzamide]","EC75, mexB (EC) strain, EM",mexB (EC) strain; [1],B (25 μM<EC75≤100 μM)
same,"EC75, mexB (EC) strain, LVFX",mexB (EC) strain; [1],B (25 μM<EC75≤100 μM)
same,"EC75, mexY (EC) strain, LVFX",mexY (EC) strain; [1],A (12.5 μM<EC75≤25 μM)
"COc1ccccc1CN1CCN(C(=O)CN2CCC(NCc3ccccc3)CC2)CC1 [Example 419, hydrochloride of 2-(4-(benzylamino)piperidin-1-yl)-1-(4-(2-methoxybenzyl)piperazin-1-yl)ethan-1-one]","EC75, mexB (EC) strain, LVFX",mexB (EC) strain; [1],A (12.5 μM<EC75≤25 μM)
same,"EC75, mexY (EC) strain, EM",mexY (EC) strain; [1],B (25 μM<EC75≤100 μM)
same,"EC75, mexY (EC) strain, LVFX",mexY (EC) strain; [1],B (25 μM<EC75≤100 μM)
"COc1cncc(F)c1CN1CCN(C(=O)[C@H](N)C2CCN(CCc3cc(Cl)ccc3-c3ccccc3)CC2)CC1 [Example 514, Hydrobromide of (R)-2-amino-2-(1-(2-(4-chloro-[1,1-biphenyl]-2-yl)ethyl)piperidin-4-yl)-1-(4-((3-fluoro-5-methoxypyridin-4-yl)methyl)piperazin-1-yl)ethan-1-one]","EC75, mexB (EC) strain, EM",mexB (EC) strain; [2],B (25 μM<EC75≤100 μM)
same,"EC75, mexB (EC) strain, LVFX",mexB (EC) strain; [2],B (25 μM<EC75≤100 μM)
same,"EC99, combinational effect with AZT, mexB (PA)",mexB (PA) strain,C (100 μM<EC99)
same,"EC99, combinational effect with LVFX, mexB (PA)",mexB (PA) strain,C (100 μM<EC99)
same,"EC99, combinational effect with TC, mexB (PA)",mexB (PA) strain,C (100 μM<EC99)
same,"EC75, mexY (EC) strain, EM",mexY (EC) strain; [2],B (25 μM<EC75≤100 μM)
same,"EC75, mexY (EC) strain, LVFX",mexY (EC) strain; [2],B (25 μM<EC75≤100 μM)
same,"EC99, combinational effect with AMK, S-3769 strain",S-3769 strain,B (25 μM<EC99≤100 μM)
same,"EC99, combinational effect with GM, S-3769 strain",S-3769 strain,B (25 μM<EC99≤100 μM)
"N[C@@H](C(=O)N1CCN(C[C@@H]2CCCN2)CC1)C1CCN(CCc2cc(Cl)ccc2-c2ccccc2)CC1 [Example 538, Hydrobromide of (R)-2-amino-2-(1-(2-(4-chloro-[1,1-biphenyl]-2-yl)ethyl)piperidin-4-yl)-1-(4-(((S)-pyrrolidin-2-yl)methyl)piperazin-1-yl)ethan-1-one]","EC75, mexB (EC) strain, LVFX",mexB (EC) strain; [2],B (25 μM<EC75≤100 μM)
same,"EC99, combinational effect with AZT, mexB (PA)",mexB (PA) strain,C (100 μM<EC99)
same,"EC99, combinational effect with LVFX, mexB (PA)",mexB (PA) strain,C (100 μM<EC99)
same,"EC99, combinational effect with TC, mexB (PA)",mexB (PA) strain,C (100 μM<EC99)
same,"EC75, mexY (EC) strain, LVFX",mexY (EC) strain; [2],A (12.5 μM<EC75≤25 μM)
same,"EC99, combinational effect with AMK, S-3769 strain",S-3769 strain,C (100 μM<EC99)
same,"EC99, combinational effect with GM, S-3769 strain",S-3769 strain,C (100 μM<EC99)
